Test results: PubChem BioAssay (NCI)
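The compound was tested at five concentrations on cells cultured in 96-well plates, with a 48-hour exposure period. GI50 is the concentration that inhibits growth by half. TGI is the concentration that stops growth completely.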

What was measured:
Assay in all cases: DTP human tumour cell line panel, 48 h
SK-OV-3 ovarian = tested on: SK-OV-3 ovarian
SF-295 CNS = tested on: SF-295 CNS
HCC-2998 colon = tested on: HCC-2998 colon
DU-145 prostate = tested on: DU-145 prostate
RPMI-8226 leukemia = tested on: RPMI-8226 leukemia
M14 melanoma = tested on: M14 melanoma
LOX IMVI melanoma = tested on: LOX IMVI melanoma
NCI-H226 lung = tested on: NCI-H226 lung
SK-MEL-5 melanoma = tested on: SK-MEL-5 melanoma
NCI-H23 lung = tested on: NCI-H23 lung
OVCAR-5 ovarian = tested on: OVCAR-5 ovarian
MDA-MB-435 = tested on: MDA-MB-435
KM12 colon = tested on: KM12 colon
T-47D breast = tested on: T-47D breast
OVCAR-4 ovarian = tested on: OVCAR-4 ovarian
CCRF-CEM leukemia = tested on: CCRF-CEM leukemia
COLO 205 colon = tested on: COLO 205 colon
RXF 393 renal = tested on: RXF 393 renal
MOLT-4 leukemia = tested on: MOLT-4 leukemia
UACC-62 melanoma = tested on: UACC-62 melanoma
HCT-116 colon = tested on: HCT-116 colon
TK-10 renal = tested on: TK-10 renal
SK-MEL-2 melanoma = tested on: SK-MEL-2 melanoma
786-0 renal = tested on: 786-0 renal
EKVX NSCLC = tested on: EKVX NSCLC
A498 renal = tested on: A498 renal
NCI-H460 lung = tested on: NCI-H460 lung
NCI-H522 lung = tested on: NCI-H522 lung
SF-268 CNS = tested on: SF-268 CNS
HOP-62 NSCLC = tested on: HOP-62 NSCLC
MDA-MB-231 breast = tested on: MDA-MB-231 breast
HCT-15 colon = tested on: HCT-15 colon
SNB-19 CNS = tested on: SNB-19 CNS
NCI/ADR-RES ovarian = tested on: NCI/ADR-RES ovarian
SN12C renal = tested on: SN12C renal
SK-MEL-28 melanoma = tested on: SK-MEL-28 melanoma
A549 NSCLC = tested on: A549 NSCLC
UO-31 renal = tested on: UO-31 renal
K-562 leukemia = tested on: K-562 leukemia
HL-60(TB) leukemia = tested on: HL-60(TB) leukemia
HOP-92 NSCLC = tested on: HOP-92 NSCLC
OVCAR-8 ovarian = tested on: OVCAR-8 ovarian
UACC-257 melanoma = tested on: UACC-257 melanoma
ACHN renal = tested on: ACHN renal
SF-539 CNS = tested on: SF-539 CNS
U251 CNS = tested on: U251 CNS
HS 578T breast = tested on: HS 578T breast
MCF7 breast = tested on: MCF7 breast
HT29 colon = tested on: HT29 colon
SW-620 colon = tested on: SW-620 colon
PC-3 prostate = tested on: PC-3 prostate
IGROV1 ovarian = tested on: IGROV1 ovarian
BT-549 breast = tested on: BT-549 breast
SNB-75 CNS = tested on: SNB-75 CNS
OVCAR-3 ovarian = tested on: OVCAR-3 ovarian
CAKI-1 renal = tested on: CAKI-1 renal
MALME-3M melanoma = tested on: MALME-3M melanoma
SR leukemia = tested on: SR leukemia

## O=C(Nc1cccc(-n2ccc3c(NC(=O)c4ccccc4)nccc32)c1)Nc1ccc(Cl)c(C(F)(F)F)c1
SK-OV-3 ovarian
  GI50: 346 nM
  TGI: 20600 nM
SF-295 CNS
  GI50: 294 nM
  TGI: 1340 nM
HCC-2998 colon
  GI50: 413 nM
  TGI: 15200 nM
DU-145 prostate
  GI50: 338 nM
  TGI: 2280 nM
RPMI-8226 leukemia
  GI50: 424 nM
  TGI: 7020 nM
M14 melanoma
  GI50: 315 nM
  TGI: 1260 nM
LOX IMVI melanoma
  GI50: 649 nM
  TGI: 31600 nM
NCI-H226 lung
  GI50: 865 nM
  TGI: > 28500 nM
SK-MEL-5 melanoma
  GI50: 317 nM
  TGI: 1480 nM
NCI-H23 lung
  GI50: 593 nM
  TGI: 5210 nM
OVCAR-5 ovarian
  GI50: 482 nM
  TGI: > 100000 nM
MDA-MB-435
  GI50: 227 nM
  TGI: 605 nM
KM12 colon
  GI50: 343 nM
  TGI: 2680 nM
T-47D breast
  GI50: 2880 nM
  TGI: > 100000 nM
OVCAR-4 ovarian
  GI50: 971 nM
  TGI: > 100000 nM
CCRF-CEM leukemia
  GI50: 332 nM
  TGI: > 100000 nM
COLO 205 colon
  GI50: 273 nM
  TGI: 737 nM
RXF 393 renal
  GI50: 224 nM
  TGI: 693 nM
MOLT-4 leukemia
  GI50: 885 nM
  TGI: > 100000 nM
UACC-62 melanoma
  GI50: 490 nM
  TGI: 20000 nM
HCT-116 colon
  GI50: 372 nM
  TGI: 13700 nM
TK-10 renal
  GI50: 1190 nM
  TGI: 14600 nM
SK-MEL-2 melanoma
  GI50: 358 nM
  TGI: 2620 nM
786-0 renal
  GI50: 589 nM
  TGI: > 100000 nM
EKVX NSCLC
  GI50: 633 nM
  TGI: > 100000 nM
A498 renal
  GI50: 210 nM
  TGI: 1350 nM
NCI-H460 lung
  GI50: 337 nM
  TGI: 18300 nM
NCI-H522 lung
  GI50: 211 nM
  TGI: 642 nM
SF-268 CNS
  GI50: 696 nM
  TGI: > 40000 nM
HOP-62 NSCLC
  GI50: 736 nM
  TGI: > 44600 nM
MDA-MB-231 breast
  GI50: 420 nM
  TGI: 14200 nM
HCT-15 colon
  GI50: 339 nM
  TGI: 14500 nM
SNB-19 CNS
  GI50: 494 nM
  TGI: > 100000 nM
NCI/ADR-RES ovarian
  GI50: 252 nM
  TGI: 667 nM
SN12C renal
  GI50: 820 nM
  TGI: > 100000 nM
SK-MEL-28 melanoma
  GI50: 651 nM
  TGI: > 92000 nM
A549 NSCLC
  GI50: 485 nM
  TGI: > 100000 nM
UO-31 renal
  GI50: 1350 nM
  TGI: > 100000 nM
K-562 leukemia
  GI50: 386 nM
  TGI: > 100000 nM
HL-60(TB) leukemia
  GI50: 332 nM
HOP-92 NSCLC
  GI50: 860 nM
  TGI: 5740 nM
OVCAR-8 ovarian
  GI50: 431 nM
  TGI: > 39600 nM
UACC-257 melanoma
  GI50: 1870 nM
  TGI: 20900 nM
ACHN renal
  GI50: 670 nM
  TGI: 8480 nM
SF-539 CNS
  GI50: 308 nM
  TGI: 3980 nM
U251 CNS
  GI50: 495 nM
  TGI: 17700 nM
HS 578T breast
  GI50: 283 nM
  TGI: 3250 nM
MCF7 breast
  GI50: 373 nM
  TGI: > 30700 nM
HT29 colon
  GI50: 327 nM
  TGI: 1400 nM
SW-620 colon
  GI50: 395 nM
  TGI: > 100000 nM
PC-3 prostate
  GI50: 432 nM
  TGI: > 36100 nM
IGROV1 ovarian
  GI50: 662 nM
  TGI: > 100000 nM
BT-549 breast
  GI50: 697 nM
  TGI: 10400 nM
SNB-75 CNS
  GI50: 240 nM
  TGI: 769 nM
OVCAR-3 ovarian
  GI50: 240 nM
  TGI: 554 nM
CAKI-1 renal
  GI50: 718 nM
  TGI: 9380 nM
MALME-3M melanoma
  GI50: 1070 nM
  TGI: 47500 nM
SR leukemia
  GI50: 367 nM
  TGI: > 23300 nM
